In the Kinase Knowledgebase extract (Sharma et al. 2016):

How the values were obtained:
PIK3CD (Human) = PIK3CD (Human) (UniProt O00329); experiment: Assessment of PIK3CD Kinase Activity
PIK3CG (human) = PIK3CG (human) (UniProt P48736); experiment: Assessment of PIK3CG Kinase Activity
PIK3CB (Human) = PIK3CB (Human) (UniProt P42338); experiment: Assessment of PIK3CB Kinase Activity
PIK3CA (human) = PIK3CA (human) (UniProt P42336); experiment: Assessment of PIK3CA Kinase Activity
PIK3CA (human), sequence (P42336 whole entry, looked up): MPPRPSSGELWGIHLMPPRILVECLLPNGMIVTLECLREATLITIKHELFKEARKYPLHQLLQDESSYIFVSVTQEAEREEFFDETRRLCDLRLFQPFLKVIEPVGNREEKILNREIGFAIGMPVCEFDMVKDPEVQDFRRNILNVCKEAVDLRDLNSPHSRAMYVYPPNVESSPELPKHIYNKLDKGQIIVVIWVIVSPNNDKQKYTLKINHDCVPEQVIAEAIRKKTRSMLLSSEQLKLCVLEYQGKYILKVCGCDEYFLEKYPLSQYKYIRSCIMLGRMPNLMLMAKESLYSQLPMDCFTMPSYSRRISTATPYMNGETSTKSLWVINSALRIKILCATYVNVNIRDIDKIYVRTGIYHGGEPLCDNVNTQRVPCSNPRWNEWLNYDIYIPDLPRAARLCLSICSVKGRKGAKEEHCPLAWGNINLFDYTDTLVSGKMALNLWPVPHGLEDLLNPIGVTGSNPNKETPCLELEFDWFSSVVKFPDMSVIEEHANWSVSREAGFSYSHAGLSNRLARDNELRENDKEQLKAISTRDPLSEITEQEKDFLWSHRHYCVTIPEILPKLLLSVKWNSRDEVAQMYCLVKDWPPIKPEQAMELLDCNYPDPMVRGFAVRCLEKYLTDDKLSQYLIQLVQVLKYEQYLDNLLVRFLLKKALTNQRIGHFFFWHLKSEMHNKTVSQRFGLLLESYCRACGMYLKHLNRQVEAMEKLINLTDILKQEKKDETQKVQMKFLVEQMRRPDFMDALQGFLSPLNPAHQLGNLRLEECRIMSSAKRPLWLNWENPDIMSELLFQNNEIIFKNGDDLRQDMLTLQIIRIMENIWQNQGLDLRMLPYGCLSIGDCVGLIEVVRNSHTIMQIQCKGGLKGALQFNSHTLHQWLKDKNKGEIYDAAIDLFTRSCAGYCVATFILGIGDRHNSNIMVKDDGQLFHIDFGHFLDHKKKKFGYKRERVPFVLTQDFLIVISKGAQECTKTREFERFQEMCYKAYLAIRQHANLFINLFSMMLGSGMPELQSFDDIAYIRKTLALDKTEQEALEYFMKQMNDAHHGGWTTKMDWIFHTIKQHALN

PIK3CB (Human), sequence (P42338 whole entry, looked up): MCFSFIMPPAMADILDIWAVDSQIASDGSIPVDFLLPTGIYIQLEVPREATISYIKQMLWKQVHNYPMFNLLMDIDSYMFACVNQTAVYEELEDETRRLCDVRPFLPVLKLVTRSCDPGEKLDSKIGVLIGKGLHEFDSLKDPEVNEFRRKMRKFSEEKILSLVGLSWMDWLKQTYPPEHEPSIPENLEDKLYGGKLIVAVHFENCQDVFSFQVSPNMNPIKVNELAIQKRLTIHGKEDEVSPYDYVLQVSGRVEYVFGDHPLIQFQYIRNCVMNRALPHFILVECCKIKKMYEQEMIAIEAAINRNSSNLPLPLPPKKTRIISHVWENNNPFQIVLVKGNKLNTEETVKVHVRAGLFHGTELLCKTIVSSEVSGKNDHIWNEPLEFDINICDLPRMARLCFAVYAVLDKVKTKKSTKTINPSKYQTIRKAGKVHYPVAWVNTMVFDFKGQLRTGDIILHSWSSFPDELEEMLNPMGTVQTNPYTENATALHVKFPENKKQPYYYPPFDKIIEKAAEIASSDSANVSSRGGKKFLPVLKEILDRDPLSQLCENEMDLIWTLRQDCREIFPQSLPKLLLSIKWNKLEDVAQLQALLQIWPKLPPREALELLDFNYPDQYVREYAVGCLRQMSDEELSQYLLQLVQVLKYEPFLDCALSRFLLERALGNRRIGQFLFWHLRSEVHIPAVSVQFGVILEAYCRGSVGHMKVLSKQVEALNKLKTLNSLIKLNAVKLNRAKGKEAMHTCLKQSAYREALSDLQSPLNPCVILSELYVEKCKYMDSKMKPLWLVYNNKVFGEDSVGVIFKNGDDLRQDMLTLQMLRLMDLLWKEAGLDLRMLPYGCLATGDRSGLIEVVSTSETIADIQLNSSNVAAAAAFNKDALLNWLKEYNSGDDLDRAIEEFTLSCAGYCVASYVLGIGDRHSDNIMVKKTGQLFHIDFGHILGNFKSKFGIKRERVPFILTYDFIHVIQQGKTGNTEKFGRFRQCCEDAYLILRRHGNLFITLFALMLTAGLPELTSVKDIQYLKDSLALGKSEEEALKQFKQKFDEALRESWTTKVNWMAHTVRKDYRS
PIK3CG (human), sequence (P48736 whole entry, looked up): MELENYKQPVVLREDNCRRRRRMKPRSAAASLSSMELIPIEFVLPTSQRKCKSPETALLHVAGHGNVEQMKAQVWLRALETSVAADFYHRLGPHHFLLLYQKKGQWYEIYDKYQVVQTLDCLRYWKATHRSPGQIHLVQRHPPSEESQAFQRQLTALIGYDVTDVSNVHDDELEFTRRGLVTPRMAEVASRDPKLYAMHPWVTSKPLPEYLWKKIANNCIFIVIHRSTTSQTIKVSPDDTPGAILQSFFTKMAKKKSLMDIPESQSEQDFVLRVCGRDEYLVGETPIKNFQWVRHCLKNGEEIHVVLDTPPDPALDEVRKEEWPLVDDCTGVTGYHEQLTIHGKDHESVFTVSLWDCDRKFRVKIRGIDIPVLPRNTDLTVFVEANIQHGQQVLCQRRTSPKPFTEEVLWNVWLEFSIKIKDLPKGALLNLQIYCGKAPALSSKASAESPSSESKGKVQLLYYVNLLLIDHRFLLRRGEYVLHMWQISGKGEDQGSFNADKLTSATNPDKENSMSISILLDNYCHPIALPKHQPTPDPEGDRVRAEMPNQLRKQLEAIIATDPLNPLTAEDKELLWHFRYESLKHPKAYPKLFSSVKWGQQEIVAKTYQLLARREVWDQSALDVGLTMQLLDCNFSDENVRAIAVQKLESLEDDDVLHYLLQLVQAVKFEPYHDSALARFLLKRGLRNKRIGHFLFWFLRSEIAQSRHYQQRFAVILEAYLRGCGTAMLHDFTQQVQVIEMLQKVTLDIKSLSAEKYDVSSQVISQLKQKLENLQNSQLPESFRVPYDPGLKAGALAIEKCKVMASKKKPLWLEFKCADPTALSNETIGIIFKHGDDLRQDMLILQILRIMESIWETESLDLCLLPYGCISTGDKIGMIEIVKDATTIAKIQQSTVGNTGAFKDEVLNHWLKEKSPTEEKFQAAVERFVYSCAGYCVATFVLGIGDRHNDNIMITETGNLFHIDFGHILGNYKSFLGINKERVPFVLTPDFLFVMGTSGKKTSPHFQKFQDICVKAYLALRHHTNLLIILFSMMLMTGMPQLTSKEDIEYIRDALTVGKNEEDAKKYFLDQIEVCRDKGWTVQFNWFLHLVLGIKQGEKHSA
PIK3CD (Human), sequence (O00329 whole entry, looked up): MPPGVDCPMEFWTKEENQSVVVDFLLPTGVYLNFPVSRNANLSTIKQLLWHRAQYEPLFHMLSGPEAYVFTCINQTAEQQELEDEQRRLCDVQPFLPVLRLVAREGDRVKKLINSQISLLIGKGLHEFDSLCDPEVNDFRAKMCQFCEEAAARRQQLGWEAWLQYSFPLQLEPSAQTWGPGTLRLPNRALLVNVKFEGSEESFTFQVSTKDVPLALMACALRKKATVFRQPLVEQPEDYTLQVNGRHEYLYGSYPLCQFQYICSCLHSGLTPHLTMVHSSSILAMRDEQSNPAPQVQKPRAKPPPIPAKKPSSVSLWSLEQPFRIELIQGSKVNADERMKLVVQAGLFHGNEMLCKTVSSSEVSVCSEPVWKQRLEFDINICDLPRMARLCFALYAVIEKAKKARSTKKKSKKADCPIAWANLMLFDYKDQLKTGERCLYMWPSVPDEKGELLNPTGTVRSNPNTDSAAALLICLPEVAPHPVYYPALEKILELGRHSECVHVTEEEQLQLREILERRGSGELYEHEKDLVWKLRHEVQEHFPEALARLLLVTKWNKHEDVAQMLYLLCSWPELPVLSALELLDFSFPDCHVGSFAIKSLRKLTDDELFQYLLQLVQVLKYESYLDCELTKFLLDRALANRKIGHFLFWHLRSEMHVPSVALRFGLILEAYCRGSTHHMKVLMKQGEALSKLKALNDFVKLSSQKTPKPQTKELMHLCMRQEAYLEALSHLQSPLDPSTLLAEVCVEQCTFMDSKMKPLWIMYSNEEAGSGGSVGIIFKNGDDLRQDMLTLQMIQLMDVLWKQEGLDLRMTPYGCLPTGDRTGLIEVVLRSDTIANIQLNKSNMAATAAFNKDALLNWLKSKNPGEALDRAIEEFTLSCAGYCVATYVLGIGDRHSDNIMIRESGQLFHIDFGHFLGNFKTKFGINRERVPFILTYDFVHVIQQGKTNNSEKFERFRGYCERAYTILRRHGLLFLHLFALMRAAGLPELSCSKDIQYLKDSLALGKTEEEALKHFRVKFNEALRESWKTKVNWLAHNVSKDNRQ

SMILES	IC50 (PIK3CD (Human))	IC50 (PIK3CG (human))	IC50 (PIK3CB (Human))	IC50 (PIK3CA (human))
Nc1ncc(-c2nn(Cc3cc4ccccc4nc3-c3ccccc3)c3ncnc(N)c23)cn1	100 to 1000 nM			
Nc1ncnc2c1c(C=C1SC(=O)NC1=O)nn2Cc1cc2ccccc2nc1-c1ccccc1F	≤ 100 nM	≤ 100 nM		
NC(=O)C=Cc1nn(Cc2cc3ccccc3nc2-c2ccccc2F)c2ncnc(N)c12	100 to 1000 nM			
CN1CCN(c2nc3ccccc3nc2Cn2nc(-c3cc(O)cc(F)c3)c3c(N)ncnc32)CC1	≤ 100 nM		100 to 1000 nM	
Nc1ncnc2c1c(-c1ccc3cn[nH]c3c1)nn2Cc1cc2ccccc2nc1N1CCCC1	≤ 100 nM			
Cc1nccn1-c1nc2ccccc2cc1Cn1nc(-c2ccc3nc(N)sc3c2)c2c(N)ncnc21	≤ 100 nM			100 to 1000 nM
CC(=O)Nc1nc2ccc(-c3nn(Cc4nc5ccccc5nc4N4CCCC4)c4ncnc(N)c34)cc2s1	≤ 100 nM	≤ 100 nM		≤ 100 nM
CN1CCN(c2nc3ccccc3cc2Cn2nc(-c3ccc4nc(N)sc4c3)c3c(N)ncnc32)CC1	≤ 100 nM	≤ 100 nM	≤ 100 nM	≤ 100 nM
Nc1nc2ccc(-c3nn(Cc4nc5ccccc5nc4N4CCCC4)c4ncnc(N)c34)cc2s1	≤ 100 nM	≤ 100 nM		100 to 1000 nM
CC(=O)Nc1nc2ccc(-c3nn(Cc4nc5ccccc5nc4N4CCN(C)CC4)c4ncnc(N)c34)cc2s1	≤ 100 nM	100 to 1000 nM	≤ 100 nM	100 to 1000 nM
Cc1ccccc1-c1nc2ccccc2cc1Cn1nc(-c2ccc3nc(N)sc3c2)c2c(N)ncnc21	≤ 100 nM	≤ 100 nM		
CCC(c1cc2ccccc2nc1N1CCCC1)n1nc(C#C[C@@H](C)O)c2c(N)ncnc21 (some centres not stated)	≤ 100 nM			
Nc1ncnc2c1c(-c1cccc(O)c1)nn2Cc1cc2ccccc2nc1-c1cccnc1	≤ 100 nM			
Nc1nc2ccc(-c3nn(Cc4cc5ccccc5nc4-c4ccccc4C(F)(F)F)c4ncnc(N)c34)cc2[nH]1	≤ 100 nM			
CC(c1cc2ccccc2nc1-c1ccccc1)n1nc(-c2cc(O)cc(F)c2)c2c(N)ncnc21 (configuration not stated)	≤ 100 nM	≤ 100 nM	100 to 1000 nM	100 to 1000 nM
